SMILES strings stand for the structures. Counter-ions that a name gives are not always drawn.

The test system of series [1] is TCC97-7 bladder cancer tumour cells carrying the Ser249Cys mutation of FGF receptor 3. Briefly: Inhibition of serum-induced proliferation of TCC97-7 bladder cancer cells (count of Hoechst 33342-labelled nuclei after 3 days). In kind it is cell-based. Particulars: TCC97-7 cells in presence of serum; for inhibition at 0.01 µM / inhibition at 0.1 µM / inhibition at 1 µM / inhibition at 10 µM: 72 h. Here is the method:
To do this, 2000 cells are seeded in the morning in 50 μl of complete medium (Ham-F/12, 1% FCS, 2 mM glutamine, non-essential amino acids, sodium pyruvate, 1% insulin/transferrin/selenium, hydrocortisone). In the evening, 50 μl of the various compounds are added at 0.02, 0.2, 2 or 20 μM after dilution in complete culture medium in order to obtain final concentrations of 0.01, 0.1, 1 and 10 μM. After 3 days, the cell proliferation is evaluated by measuring the number of nuclei at the bottom of each well corresponding to a number of cells. The nuclei are detected by means of labelling with Hoechst 33342 (Invitrogen, ref H3570). 100 μl of Hoechst 33342 diluted to 1/5000th in PBS are added to each well for 30 min at ambient temperature on non-fixed cells. The nuclei are detected by fluorescence at 350 nm at ×2 magnification with an Operetta (PerkinElmer) using the Acapella (PerkinElmer) imaging software and analysed using the Columbus (PerkinElmer) image analysis software. The percentage inhibition of the cell proliferation is calculated by considering the number of nuclei present in the wells in which the TCC97-7 cells are cultured in the absence of FGF-R antagonists to be 0% inhibition. 100% inhibition would correspond to a well no longer containing cells.

Series [2] relates to TCC97-7 bladder cancer cells carrying the Ser249Cys mutation of FGF receptor 3. Briefly: Reduction of intracellular ATP content of TCC97-7 cells (Cell Titer-Glo, 3 days, serum-supplemented medium). It counts as cell-based. The settings on record: TCC97-7 cells in presence of serum; for inhibition at 0.1 µM / inhibition at 1 µM / inhibition at 10 µM: 72 h, read-out: Inhibition of the amount of intracellular ATP (%). Here is the method:
Evaluation of the Capacity of the FGF-R Antagonists to Reduce the ATP Content of TCC97-7 Bladder Cancer Cells Carrying the Ser249Cys Mutation of FGF Receptor 3, Cultured in a Serum-Supplemented Medium
To do this, 3000 cells are seeded in 50 μl of complete medium (Ham-F/12, 1% FCS, […], non-essential amino acids, sodium pyruvate, 1% insulin/transferrin/selenium, hydrocortisone). 16 hours later, 50 μl of the various compounds are added at 0.2, 2, 20 and 60 μM after dilution in complete culture medium in order to obtain final concentrations of 0.1, 1, 10 and 30 μM. After 3 days, the ATP content of the cells is measured using the Cell Titer-Glo® Luminescent Cell Viability Assay kit (Promega, France) according to the supplier's recommendations. The percentage inhibition of the amount of intracellular ATP is calculated by considering the ATP content of the cells cultured in the absence of antagonist to be 0% inhibition. 100% inhibition would correspond to a well in which the ATP content is zero.
A general note: Cellular ATP, detected with luciferase, serves as a proxy for viable cell number.

The nature of series [3]: Cytotoxic effect: percentage of permeabilized (very fluorescent, Hoechst 33342) TCC97-7 cells. In kind it is cell-based. Particulars: human, read-out: Cytotoxicity (% of permeable cells). Here is the method: (§1) In parallel to their antiproliferative capacity, the potential cytotoxic effect of the FGF-R antagonists is measured by means of quantifying the number of cells of which the membranes are permeabilized. The appearance of pores in the plasma membrane of the cells corresponds to a state of cell death which enables the Hoechst 33342 to penetrate more easily into the cell. This is reflected by a very strong increase in the amount of fluorescence detected in the nuclei. The percentage of cells in a state of cell death is calculated by the ratio between the number of very fluorescent nuclei to the total number of nuclei, multiplied by 100. The observations are carried out in the same way as the quantification of the nuclei for the cell proliferation.

The test system of series [4] is TCC97-7 bladder cancer tumour cells carrying the Ser249Cys mutation of FGF receptor 3. The description is as above. Particulars: 3 days. In kind it is cell-based. Here is the method: as §1

As a reminder, the melting point is the temperature of the solid-liquid transition. For `Cn1c(=O)n(Cc2ccc(F)cc2)c(=O)c2cc(C(=O)c3nc(-c4cccnc4)c4ccccn34)ccc21` (as salt: hydrochloride) [compound 112, 3-(4-Fluorobenzyl)-1-methyl-6-[(1-pyridin-3-ylimidazo[1,5-a]pyridin-3-yl)carbonyl]quinazoline-2,4(1H, 3H)-dione], the melting point came out at 267 °C.

In the case of `O=C(c1ccc2nc[nH]c(=O)c2c1)c1ncc2ccccn12` [compound 3, 6-(Imidazo[1,5-a]pyridin-3-ylcarbonyl)quinazolin-4(3H)-one], the melting point worked out at 289 °C.

For orientation: inhibition means the relative decrease from the control value, in per cent. In the case of `Cn1c(=O)n(Cc2ccc(F)cc2)c(=O)c2cc(C(=O)c3nc(-c4cccnc4)c4ccccn34)ccc21` [compound 112, 3-(4-Fluorobenzyl)-1-methyl-6-[(1-pyridin-3-ylimidazo[1,5-a]pyridin-3-yl)carbonyl]quinazoline-2,4(1H, 3H)-dione], the inhibition at 0.01 µM in series [1] (0.01 μM) came out at 8%. The figures for the inhibition at 0.1 µM in series [1] (0.1 μM) and in series [2] (0.1 μM) were 18% and -3%, respectively. Further, the inhibition at 1 µM amounted to 61% in series [1] (1 μM) and 51% in series [2] (1 μM). For the same compound, the inhibition at 10 µM was determined as 84% in series [1] (10 μM) and 88% in series [2] (10 μM). Further, the cytotoxicity at 3 days, 0.01 µM in series [3] came out at 4%. In series [3], the cytotoxicity at 3 days, 0.1 µM came to 4%. For the same compound, in series [3], the cytotoxicity at 3 days, 1 µM is 16%. For the same compound, the cytotoxicity at 3 days, 10 µM in series [3] stood at 11%.

Turning to `CCCn1c(=O)n(Cc2ccc(F)cc2)c(=O)c2cc(C(=O)c3nc(-c4cnc(N(C)C)nc4)c4ccccn34)ccc21` [compound 232], the “Inhibition of proliferation (%)” value in series [1] (0.01 μM) was −6%; in series [1] (0.1 μM), 1%; in series [1] (1 μM) it was 20%; in series [1] (10 μM), 79%. In addition, the “Inhibition of the amount of intracellular ATP (%)” value (“Inhibition of the amount … (%)” for short) in series [2] (0.1 μM) stood at 7%; in series [2] (1 μM), 8%; in series [2] (10 μM), 45%. The “Cytotoxicity (% of permeable cells)” value in series [4] (0.01 μM) is recorded as 3%; in series [4] (0.1 μM) it was 3%; in series [4] (1 μM) it was 4%; in series [4] (10 μM) it was 23%.

Consider `CCCn1c(=O)n(CCOc2ccc(F)cc2)c(=O)c2cc(C(=O)c3nc(-c4cccc(C(=O)[O-])c4)c4ccccn34)ccc21.[Na+]` [compound 221, Sodium salt of 3-[3-({3-[2-(4-fluorophenoxy)ethyl]-1-propyl-2,4-dioxo-1,2,3,4-tetrahydroquinazolin-6-yl}carbonyl)imidazo[1,5-a]pyridin-1-yl]benzoic acid], for which the “Inhibition of proliferation (%)” value worked out at 5% in series [1] (0.01 μM), 27% in series [1] (0.1 μM), 80% in series [1] (1 μM) and 85% in series [1] (10 μM). For the same compound, the “Inhibition of the amount … (%)” value in series [2] (0.1 μM) is on record as −2%; in series [2] (1 μM) it was 7%; in series [2] (10 μM), 73%. Besides, the “Cytotoxicity (% of permeable cells)” value was determined as 4% in series [4] (0.01 μM), 5% in series [4] (0.1 μM), 6% in series [4] (1 μM) and 7% in series [4] (10 μM).

As for `CCCn1c(=O)[nH]c2ccc(C(=O)c3nc(NS(C)(=O)=O)c4ccccn34)cc2c1=O` [compound 13, N-{3-[(2,4-dioxo-3-propyl-1,2,3,4-tetrahydroquinazolin-6-yl)carbonyl]imidazo[1,5-a]pyridin-1-yl}methanesulphonamide], the melting point was 334 °C.

Consider `CCCn1c(C)nc2ccc(C(=O)c3nc(-c4cccc(C(N)=O)c4)c4ccccn34)cc2c1=O` [compound 55, 3-{3-[(2-Methyl-4-oxo-3-propyl-3,4-dihydroquinazolin-6-yl)carbonyl]imidazo[1,5-a]pyridin-1-yl}benzamide], for which the inhibition at 0.01 µM in series [1] (0.01 μM) turned out to be 3%. Further, in series [1] (0.1 μM), the inhibition at 0.1 µM is -2%. The inhibition at 1 µM in series [1] (1 μM) is 29%. Also, in series [1] (10 μM), the inhibition at 10 µM was determined as 47%. The inhibition at 0.1 µM in series [2] (0.1 μM) is 11%. Moreover, the inhibition at 1 µM in series [2] (1 μM) is 17%. Further, in series [2] (10 μM), the inhibition at 10 µM amounted to 57%. In addition, in series [3], the cytotoxicity at 3 days, 0.01 µM was 5%; the cytotoxicity at 3 days, 0.1 µM amounted to 5%; the cytotoxicity at 3 days, 1 µM stood at 6%; the cytotoxicity at 3 days, 10 µM worked out at 6%.

Turning to `Cc1ccc(Cn2c(=O)c3cc(C(=O)c4nc(-c5cccc(C(=O)[O-])c5)c5ccccn45)ccc3n(C)c2=O)s1.[Na+]` [compound 291], the “Inhibition of proliferation (%)” value in series [1] (0.01 μM) is recorded as 1%; in series [1] (0.1 μM), 5%; in series [1] (1 μM), 40%; in series [1] (10 μM), 81%. The results for the “Inhibition of the amount … (%)” value in series [2] (0.1 μM), in series [2] (1 μM) and in series [2] (10 μM) were 8%, 27% and 71%, respectively. Also, the “Cytotoxicity (% of permeable cells)” value is 2% in series [4] (0.01 μM), 2% in series [4] (0.1 μM), 2% in series [4] (1 μM) and 4% in series [4] (10 μM).

`CCCn1c(=O)[nH]c2ccc(C(=O)c3ncc4ccc(C(=O)O)cn34)cc2c1=O` [compound 8, 3-[(2,4-Dioxo-3-propyl-1,2,3,4-tetrahydroquinazolin-6-yl)carbonyl]imidazo[1,5-a]pyridine-6-carboxylic acid]: the melting point is 384 °C.

For `CCCn1c(=O)[nH]c2ccc(C(=O)c3nc(-c4cccc(C(N)=O)c4)c4ccccn34)cc2c1=O` [compound 29, 3-{3[(2,4-Dioxo-3-propyl-1,2,3,4-tetrahydroquinazolin-6-yl)carbonyl]imidazo[1,5-a]pyridin-1-yl}benzamide], in series [1] (0.01 μM), the inhibition at 0.01 µM was determined as 6%. The figures for the inhibition at 0.1 µM in series [1] (0.1 μM) and in series [2] (0.1 μM) were 9% and -4%, respectively. The inhibition at 1 µM in series [1] (1 μM) was found to be 45%; in series [2] (1 μM) it was 8%. Besides, the results for the inhibition at 10 µM in series [1] (10 μM) and in series [2] (10 μM) were 71% and 24%, respectively. Moreover, in series [3], the cytotoxicity at 3 days, 0.01 µM came out at 3%. Moreover, in series [3], the cytotoxicity at 3 days, 0.1 µM stood at 3%. For the same compound, the cytotoxicity at 3 days, 1 µM in series [3] was 8%. The cytotoxicity at 3 days, 10 µM in series [3] turned out to be 17%.

For the compound `Cl.Cn1c(=O)n(Cc2ccc(F)cc2)c(=O)c2cc(C(=O)c3nc(-c4cccc(C(=O)OCCN5CCOCC5)c4)c4ccccn34)ccc21`, the melting point turned out to be 215 °C.
